The subject of series [1] is ACL collagen. Nature of the series: SDS-PAGE of purified pepsin-digested collagen, ACL in high salt, low salt, neutral or low pH irradiated at -80° C. to 50 kGy (Example 10). The protocol:
This experiment was to determine whether high salt, low salt, neutral pH and low pH treated ACL will help to deliver stabilizers into ACL tissue to protect it from γ-irradiation at -80° C. with 50 kGy. 1. Prepared stock solution 2M sodium ascorbate (Spectrum […], Lot#QP0839) in water. Samples were prepared with the following: • a) DPBS • b) DPBS/200 mM sodium ascorbate • c) 0.5N HOAc • d) 0.5N HOAc/200 mM sodium ascorbate • e) 20 mM sodium phosphate pH 7.6 • f) 20 mM sodium phosphate pH 7.6/200 mM sodium ascorbate • g) 20 mM sodium phosphate pH 7.6/1M NaCl • h) 20 mM sodium phosphate pH 7.6/1M NaCl/200 mM sodium ascorbate. 2. These samples were irradiated with 0 and 50 kGy at 1.53 kGy/hr at NIST. 4. ACL were digested with pepsin and collagen purified by precipitating with salt.

Series [2] has as its system type I collagen. The series is described as follows: SDS-PAGE of type I collagen irradiated to 45 kGy with stabilizers (Example 17). The following applies: gamma irradiation at -20° C. The protocol: In this experiment, type I collagen at −20° C., −80° C. or freeze-dried at 4° C. were irradiated with gamma radiation to a total dose of 45 kGy in the presence of various stabilizers.
• 1M thiourea (Sigma T8656) in water; • 0.5M coumarin (Sigma CC4261) in ethanol; • 0.5M 0-coumaric acid (Sigma C4400) in ethanol; • 0.5M curcumin (Sigma C1386) in ethanol; • 1M L-cysteine (Sigma C6852) in water; • 1M 1,3-dimethyl-2-thiourea (Aldrich 534-13-4) in water; • 1M 2-mercaptoethylamine (Sigma M6500) in water; and • 1M 1,3-dimethylurea (Sigma D6254) in water. Phosphate buffer solution of 40 mM sodium phosphate and 100 mM NaCl; pH=7.66. Methods: The following samples were prepared to a final volume of 0.5 ml: • 1 mg/ml collagen in 5 mM acetic acid (control); • 1 mg/ml collagen+0.1 M coumaric acid; • 1 mg/ml collagen+5 mM curcumin; • 1 mg/ml collagen+0.1M L-cysteine; • 1 mg/ml collagen+0.1M 1,3-dimethyl-2-thiourea; • 1 mg/ml collagen+0.1M thiourea; • 1 mg/ml collagen+0.1M 2-mercaptoethylamine; and • 1 mg/ml collagen+0.1M 1,3-dimethylurea. The samples were irradiated as follows: • freeze-dried; temperature:4.7° C.; dose rate: 1.656 kGy/hr; total dose:45 kGy; • temperature:−20.5° C.; dose rate:1.537 kGy/hr; total does:45 kGy; and • […]; dose rate:1.530-1.528 kGy/hr;45 kGy. Following irradiation, the samples were analyzed by SDS-PAGE. Additionally, the samples were diluted 1:2 with water to give collagen concentrations of 0.5 mg/ml and a turbidity assay was performed to detect collagen fibril formation. Collagen fibril formation was initiated by adding 100 μl of phosphate buffer solution. The assay was done in triplicate using a microtiter plate reader at 340 nm wavelength.

The test system of series [3] is type I collagen. The series is described as follows: Turbidity assay of collagen fibril formation after irradiation (Example 17). In kind it is biochemical. The following applies: 45 kGy. The protocol:
Phosphate buffer solution of 40 mM sodium phosphate and 100 mM NaCl; pH=7.66. Methods: […] Following irradiation, the samples were analyzed by SDS-PAGE. Additionally, the samples were diluted 1:2 with water to give collagen concentrations of 0.5 mg/ml and a turbidity assay was performed to detect collagen fibril formation. Collagen fibril formation was initiated by adding 100 μl of phosphate buffer solution. The assay was done in triplicate using a microtiter plate reader at 340 nm wavelength.

The procedure of series [4]: • Tissue—Porcine Pulmonary Valve (PV) Heart valves were harvested prior to use and stored. • Tissue Preparation Reagents— • Polypropylene Glycol 400.
An additional 1 ml PPG was added and further water bath sonicated.
The 0.5M solution was soluble after a 20-30 minute water bath sonication.

The test system of the next series is porcine AV heart valves. The series is described as follows: HPLC analysis of frozen AV heart valve cusps irradiated to 30 kGy at -20° C. (Example 3). The following applies: 1.584 kGy/hr. The protocol:
In this experiment, frozen porcine AV heart valves soaked in various solvents were gamma irradiated to a total dose of 30 kGy at 1.584 kGy/hr at −20° C. 5. […] 6. Incubated tubes at 4° C. with nutating for ˜46 hours. 9. Frozen samples were then irradiated at −20° C. at a rate of 1.584 kGy/hr to a total dose of 30 kGy.

The test system of series [5] is porcine ACL extractable proteins. The series is described as follows: Guanidine HCl extracts of freeze dried ACL irradiated to 45 kGy: SDS-PAGE, BCA assay, densitometry (Example 6). The following applies: 45 kGy versus 0 kGy control. The protocol: Guanidine HCL extraction was done with 4 M GuHCl in 0.5 NaOAC pH 5.8 and 5 mM EDTA, 10 mM NEM, 5 mM Benzamidine and 1 mM PMSF to a final concentration of […] of extraction buffer. The samples were incubated at 4° C. on a nutator for 2 days.
A BCA assay was performed on the dialysates of the PPG+cocktail guanidine extracted samples to determine the total protein concentration in the samples.
Using BCA and SDS-PAGE on the PPG+Cocktail sample, guanidine extracts were evaluated based on SDS-PAGE of equal protein load. The protein concentrations were as follows:
Densitometry was performed on two different protein bands, as follows: […]

The next series deals with collagen. The series is described as follows: Turbidity assay of liquid and gel collagen irradiated on dry ice (Example 18). It is filed as biochemical. The following applies: frozen on dry ice, 48.73 to 53.38 kGy. The protocol:
The samples were gamma irradiated at […] (frozen on dry ice) at dose rates of […] to a total dose of 48.73 to 53.38 kGy. The irradiated samples were analyzed by SDS-PAGE. Additionally, the samples were diluted 1:2 with water to give collagen concentrations of 0.5 mg/ml and a turbidity assay was performed to detect collagen fibril formation. Collagen fibril formation was initiated by adding 100 μl of phosphate buffer solution. The assay was done in triplicate using a microtiter plate reader at 340 nm wavelength.

The subject of series [6] is ACL collagen. The series is described as follows: SDS-PAGE densitometry of purified pepsin-digested collagen, ACL in alcohols irradiated at -80° C. to 50 kGy (Example 11). The following applies: 1.53 kGy/hr. The protocol:
This experiment was to determine whether alcohols can protect ACL tissue samples from γ-irradiation at −80° C. with 50 kGy. 1. […] 2. These samples were then incubated with different alcohols for 2 hr in a shaking incubator at 37° C. 3. After 2 hr incubation, these ACL tubes were decanted and fresh solutions were added to each ACL containing tubes and incubated overnight at −80° C. 4. These samples were irradiated with 0 and 50 kGy at 1.53 kGy/hr at NIST. 6. ACL were digested with pepsin and collagen purified by precipitating with salt. 8. Ran 10 μg of each purified pepsin-digested collages on 4-12% gel and quantified both alpha 1 and alpha 2 chains.

Series [7] has as its system ACL collagen. The series is described as follows: Turbidity assay of collagen isolated from ACL irradiated in alcohols (Example 11). The following applies: even at 0.5 mg/ml. It is filed as biochemical. The protocol: 7. Turbidity assay was performed for these collagens using at [1 mg/ml].
A turbidity assay was performed for the collagen isolated from these ACL samples. Correlation was found between the ACL collagen before and after irradiation.

Series [8] concerns Porcine Pulmonary Valve (PV) Heart valves. The series is described as follows: HPLC and gel analysis of heart valve cusps gamma irradiated to 30 kGy at -20° C. (Example 1). The following applies: 1.584 kGy/hr. The protocol: In this experiment, porcine heart valves were gamma irradiated in the presence of polypropylene glycol 400 (PPG400) and, optionally, a scavenger, to a total dose of 30 kGy (1.584 kGy/hr at −20° C.).
5. 1.2 ml of PPG were added to two tubes (one of these tubes was designated 0 kGy and the other tube was designated 30 kGy): • 1.2 ml of 125 mM Trolox C in PPG were added to another two tubes • 1.2 ml of SCb stabilizer mixture—comprising of 1.5 ml 125 mM Trolox C, 300 μl 1 M Lipoic Acid, 600 μl 0.5 M Coumaric Acid and 600 μl 0.5 M n-Propyl Gallate (Final concentrations: 62.5 mM, 100 mM, 100 mM and 100 mM respectively) were added to the final two tubes.
6. Tubes were incubated at 4° C., with rocking for about 60 hours.
Samples were irradiated at a rate of 1.584 kGy/hr at −20° C. to a total dose of 30 kGy.
3. Samples were weighed, transferred to hydrolysis vials and 6 N HCl added at a volume of 20 mg tissue/ml HCl:
4. Samples were hydrolyzed at 110° C. for approximately 23 hours.

Turning to `CC(=O)O` [0.5N HOAc, acetic acid], the “yield of purified pepsin-digested collagen at 50 kGy” value in the series on ACL collagen [1] (without ascorbate, -80° C.) was 73%. `CNC(=O)NC` [1,2-dimethylurea, 1,3-dimethylurea]: in the series with type I collagen [2], the “protective effect on collagen” value is “less than that observed with thiourea and 1,3-dimethyl-2-thiourea”. Consider `CNC(=S)NC` [1,3-dimethyl-2-thiourea], for which the “fibril formation after irradiation (turbidity assay)” value (“fibril formation after irradiation” below) in the series on type I collagen [3] and in the series with type I collagen [3] (irradiated at -80° C.) was “could form fibrils after irradiation” each time. In the case of `NCCS` [2-mercaptoethylamine], the “fibril formation after irradiation” value in the series with type I collagen [3] (irradiated at -80° C.) was “could form fibrils after irradiation”. Further, in the series with type I collagen [2], the “protective effect on collagen” value was “less than that observed with thiourea and 1,3-dimethyl-2-thiourea”. With `O=C(O)/C=C/c1ccc(O)cc1` [Coumaric Acid], the “solubility of the stock solution in PPG” value in series [4] was “not 100% soluble”.

As for `C[S+](C)[O-]` [DMSO, dimethyl sulfoxide], the “HPLC analysis, preservation of peaks after irradiation” value in the series with porcine AV heart valves (listed as 20% DMSO) was “reproduced these peaks more faithfully”; in the series on porcine AV heart valves (listed as 50% DMSO) it was “slightly more effective”. For the compound `OC[C@H]1O[C@H](O[C@H]2O[C@H](CO)[C@@H](O)[C@H](O)[C@H]2O)[C@H](O)[C@@H](O)[C@@H]1O` [Trehalose, D(+)-trehalose], the “protection of guanidine extractable proteins by SDS-PAGE” value (from here on “protection … by SDS-PAGE”) in series [5] was “least protection”.

For the compound `Cc1c(C)c2c(c(C)c1O)CCC(C)(C(=O)O)O2` (stereo not shown) [Trolox C, 6-hydroxy-2,5,7,8-tetramethylchroma-2 carboxylic acid], in [4], the “solubility of the stock solution in PPG” value is given as “not soluble” and the “soluble at (in PPG)” value amounted to 125 mM. For `O=C1O[C@H]([C@@H](O)CO)C([O-])=C1O.[Na+]` [ascorbate, sodium ascorbate], in series [5], the “protection … by SDS-PAGE” value is on record as “most promising results”. For the same compound, in the series with collagen, the “protection of gel or liquid collagen (turbidity assay)” value is recorded as “most effective”. Also, the “yield of purified pepsin-digested collagen at 50 kGy” value in the series with ACL collagen [1] (with ascorbate (200 mM) in 20 mM sodium phosphate pH 7.6 without salt, -80° C.) stood at 75%; with ACL collagen [1] (with ascorbate (200 mM) in 0.5N HOAc pH 3.4, -80° C.), 83%; in the series on ACL collagen [1] (with ascorbate (200 mM) in high salt (20 mM sodium phosphate pH 7.6/1M NaCl), -80° C.) it was 40%. For `CC(O)C(C)O` (stereo not shown) [butanediol, 2,3-butanediol], the “yield for 50 kGy ACL collagen based on the densitometry of alpha 1 and 2 chains” value in the series on ACL collagen [6] was 88%. As for `COc1cc(/C=C/C(=O)CC(=O)/C=C/c2ccc(O)c(OC)c2)ccc1O` [curcumin], the “protective effect on collagen” value in the series on type I collagen [2] is “less than that observed with thiourea and 1,3-dimethyl-2-thiourea”. `N[C@@H](CS)C(=O)O` [cysteine, L-cysteine]: the “fibril formation after irradiation” value in the series on type I collagen [3] (irradiated at -80° C.) was “could form fibrils after irradiation”. In the series on type I collagen [2], the “protective effect on collagen” value is “less than that observed with thiourea and 1,3-dimethyl-2-thiourea”. In the case of `C[N+](C)(C)[C@@H](Cc1c[nH]c(=S)[nH]1)C(=O)[O-]` [ergothionine], the “protection … by SDS-PAGE” value in [5] is listed as “good protection of proteins in the lower ⅔ of the gel”. For the compound `CCO` [ethanol], the “yield for 50 kGy ACL collagen based on the densitometry of alpha 1 and 2 chains” value in the series with ACL collagen [6] was 77%. Further, in the series with ACL collagen [7], the “fibril formation in turbidity assay” value was “could not form fibrils”. For the compound `N[C@@H](Cc1c[nH]cn1)C(=O)O` [histidine, L-histidine], the “protection … by SDS-PAGE” value in series [5] was “most promising results”.

Turning to `CCCOC(=O)c1cc(O)c(O)c(O)c1` [n-Propyl Gallate], the “solubility of the stock solution in PPG” value in series [4] is listed as “soluble”.

With `CC(O)CO` (stereo not shown) [propanediol, 1,2-propanediol], the “fibril formation in turbidity assay” value in the series with ACL collagen [7] is “could not form fibrils”. On to polypropylene glycol 400 [PPG 400], for which the “HPLC analysis, irradiated versus not irradiated heart valve” value in series [8] was “nearly identical”.

Values taken from US6908591B2, “Methods for sterilizing biological materials by irradiation over a temperature gradient” (Clearant, Inc., priority 2002, dated 2005).
